Experiment [1] has as its target T1, CMKLR1 (Homo sapiens, UniProt Q99788).
T1 construct: expressed in transfected cells; host or cells: HEK293
T1 sequence (Q99788 1-373): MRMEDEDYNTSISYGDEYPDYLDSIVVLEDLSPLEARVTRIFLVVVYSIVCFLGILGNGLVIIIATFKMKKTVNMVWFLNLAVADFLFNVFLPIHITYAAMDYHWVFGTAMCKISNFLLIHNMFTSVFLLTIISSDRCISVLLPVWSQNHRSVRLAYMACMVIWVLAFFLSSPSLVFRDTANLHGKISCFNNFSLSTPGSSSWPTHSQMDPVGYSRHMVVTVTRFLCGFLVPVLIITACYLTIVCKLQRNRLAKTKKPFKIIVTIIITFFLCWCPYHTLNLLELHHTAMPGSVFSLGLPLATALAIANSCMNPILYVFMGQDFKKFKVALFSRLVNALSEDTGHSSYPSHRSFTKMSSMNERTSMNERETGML
The experiment can be described thus: β-Arrestin recruitment, Link-Light CMKLR1 stable cell line. It counts as cell-based. As to conditions: 1 hr treatment; for Emax: read-out: Max Efficacy (% 10 μM s-Stable chem9).

In experiment [2] the target is T1, CMKLR1. Put plainly: Luciferase reporter assay of CMKLR1 canonical Gαi signal transduction in HEK293 cells transiently expressing recombinant CMKLR1 (+/- wash, +/- albumin). It counts as cell-based. Particulars: for EC50: no wash.
The test system of experiment [3] is chronic constriction injury (CCI) mouse model. Put plainly: Chronic constriction injury (CCI) mouse model of neuropathic pain. It counts as in vivo. Particulars: for effect on neuropathic pain: CCI mouse model; for time after compound administration over which mechanical hypersensitivity is blocked / efficacy kept: intrathecal administration. How it is done:
Following intrathecal administration of compound, 1-Stable Chem (C16-stable Chem9) blocked mechanical hypersensitivity for more than 24 hours after compound administration (FIG. 6A). In contrast, Resolvin E1 lost efficacy by 3 hours post injection (FIG. 6B).
One emerging treatment strategy to treat neuropathic pain is to target modulators of the neuroinflammatory process which contributes to neuropathic pain. We have previously identified a palmitoylated stable analog (“C16-Stable Chem9”) derived from a 9 amino acid fragment of chemerin. […] Extending from these observations, we hypothesized that the pharmacological properties of our peptide may be further optimized by modifying the lipid anchor. We have chemically synthesized a series of Chem 9 analogs with various lipid tails (e.g. cholesterol, oleic acid, linolenic acid). In vitro pharmacological characterization of each peptide was done using HEK293 cells transiently expressing the recombinant CMKLR1. […] Furthermore, selected lipid tails bias binding to either albumin (thus enhancing systemic delivery) or to the cellular membrane (which favors locally restricted function). The lipidated CMKLR1 ligands have promise as modulators of neuropathic pain. In addition, our findings illustrate an approach where serial addition/substitution of lipid anchors can be applied to optimize the pharmacological as well as pharmacokinetic properties of many peptide ligands.

Experiment [4] deals with mouse model of corneal inflammation. Put plainly: Thermal cautery mouse model of corneal inflammation. Format: in vivo. How it is done:
FIG. 15 is a set of flow cytometry graphs showing that cell infiltration decreases after topical application of oTTx-010 compared to vehicle. Flow cytometry of pulled corneas was performed on day 3 post cautery. Mice were treated topically three times a day with 10 μL of oTTx-010 or vehicle for 3 days. 10 μL of […] oTTx-010 in 1×PBS solution=4.2 micrograms oTTx-010/dose.
Thermal cautery is a mouse model of corneal inflammation (see Arch Ophthalmol. 2003 Hamrah et al.).

In a further experiment the test system is DED mice. The experiment can be described thus: Dry eye disease (DED) mouse model (scopolamine and desiccating stress). It counts as in vivo. From the text: FIG. 11 is a graph showing that corneal fluorescein staining scores were lower in DED mice treated with oTTx-010. NEI scoring system: 0-15.
FIG. 13 is a set of flow cytometry graphs showing that percentage of activated immune cells (MHCII+) in the draining lymph node of oTTx-010 treated mice decreased compared to vehicle controls.
FIG. 14 is a set of flow cytometry graphs showing that T regulatory cells increased in the draining lymph node of oTTx-010 treated mice compared to vehicle (showing more tolerance). Flow cytometry of draining lymph nodes gated on CD45+ CD3+ and CD4+ (T cells).
In the DED mouse model, scopolamine is injected 3 times/day to decrease tear production in mice. Fenestrated cages and 4 fans around the cage working 24 hours/day are used to induce desiccating stress and dry eyes. oTTx-010 is administered to the mice to assess treatment efficacy. Vehicle is administered as control.

Non-standard residues stand in square brackets, D forms with d. Residues, ends and D or L forms follow the SMILES beside them. Primed or numbered codes have the meaning given here. *: point of attachment. Palmitoyl = CCCCCCCCCCCCCCCC(=O)*; Tic = O=C(O)[C@@H]1Cc2ccccc2CN1; PEG8′ = not defined here

For `CC(C)C[C@H](NC(=O)[C@H](Cc1ccccc1)NC(=O)[C@H](N)Cc1ccc(O)cc1)C(=O)N1CCC[C@H]1C(=O)N[C@H](CO)C(=O)N[C@@H](CCC(N)=O)C(=O)N[C@@H](Cc1ccccc1)C(=O)N[C@H](C)C(=O)N1Cc2ccccc2C[C@H]1C(=O)N[C@@H](CO)C(=O)O` [none, reference compound] (HELM PEPTIDE1{[dY].F.L.P.[dS].Q.F.[dA].[Tic].S}$$$$V2.0), the EC50 on CMKLR1 [1] came out at 31.9 nM; at CMKLR1 [2] (no BSA, read-out: EC50 (no wash0)), 35.2 nM; on CMKLR1 [2] (with BSA, read-out: EC50 (BSA) (no wash)) it was 5.1 nM. Besides, the Emax on CMKLR1 [1] turned out to be 100%.

On to `CC/C=C\C/C=C\C/C=C\CCCCCCCC(=O)NCCOCCOCCOCCOCCOCCOCCOCCOCCC(=O)N[C@@H](CCCCN)C(=O)NCC(=O)NCC(=O)N[C@H](Cc1ccc(O)cc1)C(=O)N[C@@H](Cc1ccccc1)C(=O)N[C@@H](CC(C)C)C(=O)N1CCC[C@H]1C(=O)N[C@H](CO)C(=O)N[C@@H](CCC(N)=O)C(=O)N[C@@H](Cc1ccccc1)C(=O)N[C@H](C)C(=O)N1Cc2ccccc2C[C@H]1C(=O)N[C@@H](CO)C(=O)O` [C18:3] (HELM PEPTIDE1{[CC/C=C\C/C=C\C/C=C\CCCCCCCC(=O)[*:2]].[O=C(CCOCCOCCOCCOCCOCCOCCOCCOCCN[*:1])[*:2]].K.G.G.[dY].F.L.P.[dS].Q.F.[dA].[Tic].S}$$$$V2.0; N-terminus and C-terminus assumed), for which the Emax on CMKLR1 [1] amounted to 110%. Further, the “activity after washing in the presence of BSA” value at CMKLR1 [2] (with BSA, FIGS. 8C-8D) is given as “further reduced”.

Turning to `CCCCCC/C=C\CCCCCCCC(=O)NCCOCCOCCOCCOCCOCCOCCOCCOCCC(=O)N[C@@H](CCCCN)C(=O)NCC(=O)NCC(=O)N[C@H](Cc1ccc(O)cc1)C(=O)N[C@@H](Cc1ccccc1)C(=O)N[C@@H](CC(C)C)C(=O)N1CCC[C@H]1C(=O)N[C@H](CO)C(=O)N[C@@H](CCC(N)=O)C(=O)N[C@@H](Cc1ccccc1)C(=O)N[C@H](C)C(=O)N1Cc2ccccc2C[C@H]1C(=O)N[C@@H](CO)C(=O)O` [C16:1] (HELM PEPTIDE1{[CCCCCC/C=C\CCCCCCCC(=O)[*:2]].[O=C(CCOCCOCCOCCOCCOCCOCCOCCOCCN[*:1])[*:2]].K.G.G.[dY].F.L.P.[dS].Q.F.[dA].[Tic].S}$$$$V2.0; N-terminus and C-terminus assumed), the Emax on CMKLR1 [1] came to 154%.

Regarding `CCCC/C=C\CCCCCCCC(=O)NCCOCCOCCOCCOCCOCCOCCOCCOCCC(=O)N[C@@H](CCCCN)C(=O)NCC(=O)NCC(=O)N[C@H](Cc1ccc(O)cc1)C(=O)N[C@@H](Cc1ccccc1)C(=O)N[C@@H](CC(C)C)C(=O)N1CCC[C@H]1C(=O)N[C@H](CO)C(=O)N[C@@H](CCC(N)=O)C(=O)N[C@@H](Cc1ccccc1)C(=O)N[C@H](C)C(=O)N1Cc2ccccc2C[C@H]1C(=O)N[C@@H](CO)C(=O)O` [C14:1] (HELM PEPTIDE1{[CCCC/C=C\CCCCCCCC(=O)[*:2]].[O=C(CCOCCOCCOCCOCCOCCOCCOCCOCCN[*:1])[*:2]].K.G.G.[dY].F.L.P.[dS].Q.F.[dA].[Tic].S}$$$$V2.0; N-terminus and C-terminus assumed), at CMKLR1 [1], the Emax stood at 124%.

Take `CCCC(=O)NCCOCCOCCOCCOCCOCCOCCOCCOCCC(=O)N[C@@H](CCCCN)C(=O)NCC(=O)NCC(=O)N[C@H](Cc1ccc(O)cc1)C(=O)N[C@@H](Cc1ccccc1)C(=O)N[C@@H](CC(C)C)C(=O)N1CCC[C@H]1C(=O)N[C@H](CO)C(=O)N[C@@H](CCC(N)=O)C(=O)N[C@@H](Cc1ccccc1)C(=O)N[C@H](C)C(=O)N1Cc2ccccc2C[C@H]1C(=O)N[C@@H](CO)C(=O)O` [C4] (HELM PEPTIDE1{[CCCC(=O)[*:2]].[O=C(CCOCCOCCOCCOCCOCCOCCOCCOCCN[*:1])[*:2]].K.G.G.[dY].F.L.P.[dS].Q.F.[dA].[Tic].S}$$$$V2.0; N-terminus and C-terminus assumed): at CMKLR1 [1], the Emax was found to be 89.7%.

Consider `CCCCCCCCCCCCCCCC(=O)NCCOCCOCCOCCOCCOCCOCCOCCOCCC(=O)N[C@@H](CCCCN)C(=O)NCC(=O)NCC(=O)N[C@H](Cc1ccc(O)cc1)C(=O)N[C@@H](Cc1ccccc1)C(=O)N[C@@H](CC(C)C)C(=O)N1CCC[C@H]1C(=O)N[C@H](CO)C(=O)N[C@@H](CCC(N)=O)C(=O)N[C@@H](Cc1ccccc1)C(=O)N[C@H](C)C(=O)N1Cc2ccccc2C[C@H]1C(=O)N[C@@H](CO)C(=O)O` [C16] (HELM PEPTIDE1{[CCCCCCCCCCCCCCCC(=O)[*:2]].[O=C(CCOCCOCCOCCOCCOCCOCCOCCOCCN[*:1])[*:2]].K.G.G.[dY].F.L.P.[dS].Q.F.[dA].[Tic].S}$$$$V2.0; N-terminus and C-terminus assumed), for which the Emax on CMKLR1 [1] came to 165%. For the same compound, the entries for the “effect on neuropathic pain” value in experiment [3] (listed as C16-stable Chem9) and in experiment [3] (listed as palm sC9) were “abrogate neuropathic pain” and “alleviated neuropathic pain”, respectively. Also, in experiment [3], the “time after compound administration over which mechanical hypersensitivity is blocked / efficacy kept” value was “more than 24 hours”. In addition, at CMKLR1 [2] (previously identified analog), the “potency and duration of activity (anchors to the cell membrane)” value was “high potency and long-term activity”. For the same compound, on CMKLR1 [2] (with BSA, FIGS. 8A-8B), the “wash resistance (an index of membrane adherence) in the presence of BSA” value is “decreased”.

In the case of `CCCCCCCC/C=C\CCCCCCCC(=O)NCCOCCOCCOCCOCCOCCOCCOCCOCCC(=O)N[C@@H](CCCCN)C(=O)NCC(=O)NCC(=O)N[C@H](Cc1ccc(O)cc1)C(=O)N[C@@H](Cc1ccccc1)C(=O)N[C@@H](CC(C)C)C(=O)N1CCC[C@H]1C(=O)N[C@H](CO)C(=O)N[C@@H](CCC(N)=O)C(=O)N[C@@H](Cc1ccccc1)C(=O)N[C@H](C)C(=O)N1Cc2ccccc2C[C@H]1C(=O)N[C@@H](CO)C(=O)O` [C18:1] (HELM PEPTIDE1{[CCCCCCCC/C=C\CCCCCCCC(=O)[*:2]].[O=C(CCOCCOCCOCCOCCOCCOCCOCCOCCN[*:1])[*:2]].K.G.G.[dY].F.L.P.[dS].Q.F.[dA].[Tic].S}$$$$V2.0; N-terminus and C-terminus assumed), the Emax at CMKLR1 [1] came out at 160%.

As to “palmitate-PEG8KGG-H2N-Y*-F-L-P-S*-Q-F-A*-Tic-S-COOH ({Palmitoyl-PEG8′}-KGG[dY]FLP[dS]QF[dA][Tic]S-OH) [oTTx-010]”, the “cell infiltration (flow cytometry of corneas)” value in experiment [4] (day 3 post cautery, topical three times a day 10 μL for 3 days, compared to vehicle) is listed as “decreases”. In addition, in experiment [4] (topical), the “inflammation in the eye” value was “decrease inflammation in the eye”. Besides, the “corneal fluorescein staining scores” value with DED mice (NEI scoring system: 0-15, compared with vehicle) is given as “lower”. Moreover, in the experiment with DED mice (compared to vehicle treated group), the “blink reflex as a sign of ocular irritation” value was “significantly lower”. Also, the “T regulatory cells in the draining lymph node” value in the experiment with DED mice (flow cytometry gated on CD45+ CD3+ and CD4+, compared to vehicle) is “increased”. The “percentage of activated immune cells (MHCII+) in the draining lymph node” value in the experiment with DED mice (flow cytometry, compared to vehicle controls) is “decreased”. In the experiment with DED mice (topical), the “clinical symptoms and signs and immune tolerance in DED” value was “decrease clinical symptoms and signs and improve immune tolerance”.

`CCCCCCCCCC(=O)NCCOCCOCCOCCOCCOCCOCCOCCOCCC(=O)N[C@@H](CCCCN)C(=O)NCC(=O)NCC(=O)N[C@H](Cc1ccc(O)cc1)C(=O)N[C@@H](Cc1ccccc1)C(=O)N[C@@H](CC(C)C)C(=O)N1CCC[C@H]1C(=O)N[C@H](CO)C(=O)N[C@@H](CCC(N)=O)C(=O)N[C@@H](Cc1ccccc1)C(=O)N[C@H](C)C(=O)N1Cc2ccccc2C[C@H]1C(=O)N[C@@H](CO)C(=O)O` [C10] (HELM PEPTIDE1{[CCCCCCCCCC(=O)[*:2]].[O=C(CCOCCOCCOCCOCCOCCOCCOCCOCCN[*:1])[*:2]].K.G.G.[dY].F.L.P.[dS].Q.F.[dA].[Tic].S}$$$$V2.0; N-terminus and C-terminus assumed): on CMKLR1 [1], the Emax was found to be 98.3%.

On to `CC[C@@H](O)/C=C/C=C\C[C@@H](O)/C=C/C=C/C=C\[C@@H](O)CCCC(=O)O` [Resolvin E1, reference compound], for which, in experiment [3], the “effect on neuropathic pain” value was “abrogate neuropathic pain” and the “time after compound administration over which mechanical hypersensitivity is blocked / efficacy kept” value is at most 3 h.

For the origin of these results see patent US11197906B2, “Methods of lowering blink reflex for the treatment of dry eye disease” (Tufts Medical Center, priority 2016, dated 2021).
